The test system of the experiment is neural stem cells. In words: In vitro differentiation assay on adult neuronal stem cells (beta-III-tubulin promoter dual luciferase reporter). Format: cell-based, rat. To be noted: 48 hrs; concentration ranges within 0.01 to 100 μM; versus sham treated cells. From the text: The neuroregenerative effect of the compounds according to the present invention can be assayed in vitro by measuring their stimulation of the differentiation of neuronal stem cells. Therefore, adult neuronal stem cells have to be isolated and subsequently cultivated in a suitable culture medium. After several passages in vitro the stem cells have to be co-transfected with a DNA construct coding for two discriminable reporter proteins one of them under the control of a constitutive promoter and the other under the control of a beta-III-tubulin promoter. The beta-III-tubulin promoter is induced during the process of neuronal stem cell differentiation; therefore the reporter protein under the control of this promoter serves as a marker for the stem cell differentiation in such an in vitro dual reporter assay (Schneider et al., J Clin Investigation 2005; 115:2083-2098). The person skilled in the art knows several suitable constitutive promoters such as the SV40-promoter, the TK-promoter, or the CMV-promoter. As discriminable reporter proteins for such a dual reporter assay one can use discriminable luciferases such as firefly luciferase and Renilla luciferase. The transfected cells have to be incubated with the test compound and with positive and negative controls for normalization and background correction. As a positive control compound one can use retinoic acid (Guan et al., Cell Tissue Res. 2001; 305:171-176; Jacobs et al., Proc. Natl. Acad. Sci. USA 2006; 103:3902-3907), a suitable negative control is the sham treatment of the cells. The neroregenerative activity of the test compound is determined as the ratio of the signal of the beta-III-tubulin promoter controlled reporter versus the signal of the constitutively expressed reporter and is expressed as fold from the control. This assay is suitable to assess the neuroregenerative activity of tranilast and derivatives thereof, but also can be used to screen for other potential neuroregenerative compounds. Preferably, such a screening can be used to test compounds which are already known to be suitable as a medicament in terms of its toxicology, bioavailability, solubility, stability etc.
Neural stem cells were isolated from the subventricular zone of 4 week-old male Wistar rats as described (Maurer et al, Proteome Sci. 2003; 1:4). Cells were cultivated in Neurobasal medium (Invitrogen) supplemented with B27 (Invitrogen), 2 mM L-glutamine, 100 units/ml penicillin, 100 units/ml streptomycin, 20 ng/ml […] growth factor (EGF), 20 ng/ml fibroblast growth factor-2 (FGF-2), and […] heparin. Once a week the neural stem cells were passaged and experiments were performed after 4 weeks in vitro. For DNA transfection, the cells were dissociated and plated on poly-L-ornithin/laminin-coated 96-well plates at a density of 50.000 cells/well. Cotransfection with the pGL3-p-βIII-tubulin vector (100 ng/well) and the pRL SV40 vector (100 ng/well) was carried out according to the FuGene6 Transfection protocol (Roche). The pRL SV40 vector (Promega) served as an internal control vector.
To amplify the class III β-tubulin gene promoter (fragment −450-+54), rat genomic DNA was used as a template for PCR (Dennis et al., Gene 2002; 294:269-277). The amplified fragment was inserted into the Mlu I/Xho I site of the pGL3-Basic firefly luciferase reporter vector (Promega) to generate the pGL3-p-βIII-tubulin experimental vector.
After overnight incubation, the plate was decanted and given in 8-fold replicates fresh medium containing tranilast (Sigma) or vehicle. As a positive control for in vitro differentiation, stem cells were treated by adding 1 μM retinoic acid (Sigma) to the medium missing the mitogens.
After 48 hrs, the cells were harvested to prepare the cellular extracts for luciferase assay following the directions of the manufacturer (Promega). […]
(In a reporter assay the amount or activity of a reporter protein is the signal.)

For `COc1ccc(/C=C/C(=O)Nc2ccccc2C(=O)O)cc1OC` [tranilast, 2-((3-(3,4-dimethoxyphenyl)-1-oxo-2-propenyl)amino)benzoic acid], the “differentiation of neural stem cells to neurons (relative induction of the class III β-tubulin gene promoter controlled luciferase signal)” value is given as “significantly stimulates the differentiation of neural stem cells to neurons”.

The record behind these values is US20110112187A1, “Use Of Tranilast And Derivatives Thereof For The Therapy Of Neurological Conditions” (priority 2007, published 2011).
